Legend:
Type in all cases: cell-based, human
[1] = tested on: VCAM-1 promoter; test: TNF-alpha-induced VCAM-1 promoter activity, dual luciferase reporter assay in HAEC
Method: (§1) Cell culture and treatment of HAEC: Human aortic endothelial cells (HAEC; Cambrex Bio Science Walkersville, Inc., Walkersville, Md.) are cultured in M199 supplemented with 8% FBS, 100 μg/ml heparin, 10 ng/ml endothelial growth factor, 100 μg/ml hypothalamus extract, 2 mM L-glutamine, 1% non-essential amino acids, 100 units/ml penicillin and 100 μg/ml streptomycin. HAEC are subcultured on gelatin pre-coated: 96-well tissue culture plates (Corning Incorporated; Corning, N.Y.) for viability assays and ELISA; 100-mm tissue culture dishes (BD Falcon; Franklin Lakes, N.J.) for Northern blot analyses, Western blot analyses and EMSA; 35-mm tissue culture dishes (Corning) for adhesion assays and on 24-well tissue culture plates for luciferase promoter assays (BD Falcon). All experiments are performed with confluent HAEC monolayers. Unless noted otherwise, HAEC are treated with 25 ng/ml TNF-α, in the absence or presence of C-10 or 0.25% DMSO (carrier control for C-10), for 2-24 hrs. The concentration of DMSO is held constant at 0.25% (unless indicated otherwise) for all of the C-10 conditions.
Dual Luciferase Assay: Four human VCAM-1 promoter deletion constructs of different length, −1641/+12, −288/+12, −228/+12, −85/+12 bp are amplified by PCR from human genomic DNA. Each upstream primer contained a restriction endonuclease Mlu I site located at the 5′-end of the primer. The downstream primer corresponding to the +12 end contained a restriction endonuclease Xho I site at the 5′-end. The PCR products are digested by Mlu I and Xho I (New England Biolabs Inc., Beverly, Mass.) and ligated into a similarly digested pGL3 basic luciferase reporter vector (Promega, Madison, Wis.). Cells are transfected for 24 hrs. with 400 ng of indicated constructs, or pGL3 basic luciferase reporter vector as control, using GeneJuice transfection reagent (Novagen Inc., Madison, Wis.). All cells are also transfected with phRL-TK (Int−) vector (Promega), which contains wildtype Renilla luciferase (Rluc) as an “internal” transfection control. Luciferase assays are conducted with the Dual-Luciferase Reporter Assay System (Promega) on a Lumat LB 9507 tube luminometer. In every experiment, each condition is run in triplicate wells. Each experiment is replicated at least twice.

[2] = tested on: IRF-1; test: TNF-alpha-induced IRF-1 RNA levels (Northern blot); conditions: for % INIHIBITION of TNF-alpha-induced IRF-1 RNA levels: mean ± SD
Method: as §1
HAEC are washed with PBS and total RNA extracted using a commercial kit (RNeasy Mini Kit; Qiagen Inc.; Valencia, Calif.). 12 μg of total RNA per lane is resolved on 1% denaturing agarose gels containing 0.66M formaldehyde. Gels are capillary blotted on Nytran membranes (Schleicher and Schuell Inc.; Keene, N.H.), UV cross-linked, and used for hybridization. The probe for IRF-1 has been previously described (33). The G3PDH cDNA is from Clontech (Palo Alto, Calif.). […]; cDNAs are labeled with α-^32P-dCTP using the Ladderman Labeling Kit (Takara Biochemical Inc.; Berkeley, Calif.) (33). Northern blots are developed using a BAS 1500 Bioimaging Analyzer (Fuji Photo Film Co., Ltd. Medical Systems USA Inc.; Stanford, Calif.). Each experiment is replicated at least twice.

[3] = tested on: E-selectin; test: ELISA of TNF-α induced E-selectin protein on HAEC
Method: as §1
HAEC are washed with cold HBSS+, fixed in 1% formaldehyde at 4° C. for 20 min., washed with cold HBSS+, and incubated in cold M199 containing 8% FBS. Unless otherwise noted, from this point on all antibody dilutions and washes are carried out with M199 containing 8% FBS. Murine mAbs (primary mAbs) to ECAMs are added (10 μg/ml) and the HAEC incubated at 4° C. for 20 min. Following the incubation, the wells are washed and a peroxidase conjugated polyclonal (secondary) antibody to mouse IgG is added (diluted 1:50). After a 20 min. incubation at 4° C., the wells are washed and treated with OPD dissolved in phosphate citrate buffer containing sodium perborate. Following a 10 min. incubation at room temperature, the absorbance of the fluid in each well is determined at 450 nm using a micro-well plate spectrophotometer (Molecular Devices; Sunnyvale, Calif.). In every experiment, each condition is run in triplicate wells.

[4] = tested on: ICAM-1; test: ELISA of TNF-α induced ICAM-1 protein on HAEC
Method: as §1, with “The concentration of DMSO is held constant at 0.25% (unless indicated otherwise) for all of the C-10 conditions.” left out
HAEC are washed with cold HBSS+, fixed in 1% formaldehyde at 4° C. for 20 min., washed with cold HBSS+, and incubated in cold M199 containing 8% FBS. […] Following a 10 min. incubation at room temperature, the absorbance of the fluid in each well is determined at 450 nm using a micro-well plate spectrophotometer (Molecular Devices; Sunnyvale, Calif.). […]

`Cn1c(-c2ccccc2)cnc1S` [5-Phenylmethimazole] was tested, and the “effect on TNF-α induced promoter activities of the four VCAM-1 constructs” value ([1]; 0.3 mM, 10 ng/ml TNF-α 6 hrs., −1641/+12, −288/+12, −228/+12, −85/+12 bp constructs) was “inhibits”, the “% INHIBITION of TNF-alpha-induced VCAM-1 promoter activity” value ([1]; 10 :M, hVCAM-1(−228 to +12)-luciferase construct, mean ± SD) was 31 ± 5% and the “% INHIBITION of TNF-alpha-induced VCAM-1 promoter activity” value ([1]; 100 :M, hVCAM-1(−228 to +12)-luciferase construct, mean ± SD) was 61 ± 3%. The inhibition at 5000 µM ([1]; Homo sapiens, 5.0 mM, hVCAM-1(−228 to +12)-luciferase construct, mean ± SD) was 72 ± 3%, the “effect on TNF-α induced IRF-1 mRNA expression in HAEC” value ([2]; 0.5 mM or 1 mM, 2 hr. TNF-α) was “reduces” and the “% INIHIBITION of TNF-alpha-induced IRF-1 RNA levels” value (from here on “% INIHIBITION”) ([2]; 5 mM) was 95 ± 15%. The “% INIHIBITION” value ([2]; 10 :M) was 65 ± 16%, the “% INIHIBITION” value ([2]; 100 :M) was 90 ± 17% and the “effect on TNF-α induced protein expression of E-selectin” value ([3]; 4 hr. TNF-α) was “little to no effect”. The “concentration at which significant reduction of TNF-α induced E-selectin protein expression is observed” value ([3]; 24 hr. TNF-α) was at least 0.05 mM, the “effect on TNF-α induced protein expression of E-selectin” value ([3]; 24 hr. TNF-α) was “significantly reduces” and the “effect on TNF-α induced protein expression of ICAM-1” value ([4]; 4 hr. TNF-α) was “little to no effect”. For the same molecule, the “effect on TNF-α induced protein expression of ICAM-1” value ([4]; 24 hr. TNF-α) was “no effect”.

From patent US20050209295A1, “Methimazole derivatives and tautomeric cyclic thiones to inhibit cell adhesion” (priority 2004, published 2005)
